According to US20250154163A1, “Pyrimidinone-Containing 17-Beta-Hydroxysteroid Dehydrogenase Type 13 Inhibitors” (ENANTA PHARMACEUTICALS, INC., priority 2023, published 2025):

Target: T1, human HSD17β13 (stable HEK293T cell line overexpressing human HSD17β13) (Homo sapiens, UniProt Q7Z5P4)
T1 construct: expressed in transfected cells
T1 sequence (Q7Z5P4 20-300): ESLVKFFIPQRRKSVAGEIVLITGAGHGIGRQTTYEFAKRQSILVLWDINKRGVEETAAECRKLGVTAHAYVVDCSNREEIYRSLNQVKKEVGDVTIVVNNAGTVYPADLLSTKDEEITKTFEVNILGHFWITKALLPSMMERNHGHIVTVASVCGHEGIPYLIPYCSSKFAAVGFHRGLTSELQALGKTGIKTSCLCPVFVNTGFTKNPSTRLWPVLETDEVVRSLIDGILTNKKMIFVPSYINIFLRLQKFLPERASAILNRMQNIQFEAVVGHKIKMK
Test: HSD17β13 inhibitor cell-based screening assay (conversion of estradiol-d2 to estrone-d2 by RF-MS)
Conditions: conversion of estradiol-d2 to estrone-d2 after 24 hours
Procedure: The purpose of this cell-based assay is to determine the cellular efficacy (IC50) of HSD17β13 inhibitors in a stable HEK293 T cell line overexpressing human HSD17β13. The assay measures by Rapid Fire mass-spectrometry (RF-MS) the conversion of estradiol-d2 to estrone-d2. Cytotoxicity was also assessed via luminescent signal generated by the ATPlite viability assay reagent. To screen compounds for HSD17013 inhibition, black 384-well plates were seeded with 1000× concentration of compounds in a 9-point 1:3 dilution curve (final top concentration of 10 μM) as well as 1000× concentration of 17β-estradiol-d2 (5 μM final concentration) added to all wells. HEK293T cells stably overexpressing human HSD17013 and the parent HEK293T cell lines were then seeded in the plates on top of the compounds and substrate in MEM media containing 1% charcoal/dextran-treated FBS. Supernatant is collected and immediately frozen after 24 hours of incubation, and conversion of estradiol-d2 to estrone-d2 is measured at Pure Honey by RF-MS. The remaining media in the plate was removed from the wells and replaced with ATPlite viability assay reagent. Luminescent signal from the ATPlite reagent was measured on the Envision plate reader. 10 μL of 10 mM compounds stocks (1000×) dissolved in DMSO were pipetted into the appropriate wells on the 384 LDV plate (Labcyte; cat. no.: LP-0200) and the appropriate volumes of DMSO solvent were included onto an intermediate plate to further dilute the compound stocks to complete the 9-pt dose curve (final top concentration of 10 μM). 10 μL per well of 5 mM estradiol-d2 (1000×) (Cayman; item no.: 9002846) (5 μM final concentration) dissolved in DMSO was seeded into the appropriate number of wells on the same source plate as the compounds. The Echo 650 (Labcyte) was used for compound dilutions and dispensing both the compounds and the substrate onto a dry 384-well black assay plate (Falcon/Corning; cat. no.:353962). Afterwards, cells were immediately counted and seeded onto the plate. Cells were cultured for expansion in EMEM (ATCC; cat. no.: 30-2003)+10% FBS (Hyclone; cat. no.: SH3007003)+1×PenStrep (Gibco; cat. no.: 15140-122). All media for stable cell line overexpressing HSD17013 also included […] zeocin (Invitrogen; cat. no.: 46-0509) for selection. To prepare cells for seeding into the 384-well assay plate, cells were trypsinized for 3 minutes in the incubator. The Trypsin-EDTA (0.25%) (Gibco; cat. no.: 25200056) was neutralized with EMEM complete culture medium warmed to 37° C. Cells were then centrifugated at 300×g for 5 minutes at room temperature. The cell pellet was resuspended in phenol red-free MEM (Gibco; cat. no.: 51200-038)+1% charcoal/dextran-treated FBS (Hyclone; cat. no.: SH3006803) and 1×PenStrep warmed to 37° C. Cells were then counted using the TC20 automated cell-counter (Bio-Rad) and disposable duel chamber counting slides (Bio-Rad; cat. no.: 1450016) for a cell density of 1.5E5 cells/mL to then seed into the assay plate at 7.5E3 cells/well with 50 μL of media per well. Prior to the 24-hour time point, a solution of 1% formic acid (10×) (Honeywell; cat. no.: 94318) in MEM phenol red-free MEM+1% charcoal/dextran-treated FBS and 1×PenStrep was made. ATPlite luminescent ATP detection reagent (PerkinElmer; cat. no.: 6016739) was prepared according to the manufacturer's instructions. A new 384-well Falcon plate (collection plate) was seeded with 2 μL per well of 10× formic acid and then 18 μL of cell supernatant was added onto the formic acid, resulting in a 20 μL per well solution of 0.1% formic acid (1×) in supernatant. The plate of collected supernatant was immediately frozen on dry ice before being stored at −80° C. The collection plate was shipped to Momentum Biotechnologies for analysis. The remaining supernatant in the assay plate was discarded and 25 μL of ATPlite reagent was added to each well. […]

IC50 [nM]	Compound
< 100	COCCOc1ccc(-c2nc3sc4c(O)c(Cl)ccc4c3c(=O)n2Cc2cnco2)c(C2CC2)c1 [Example 74]
< 100	COc1ccc(-c2nc3sc4c(O)c(Cl)ccc4c3c(=O)n2Cc2sc(C)nc2C)c(C2CC2)c1 [Example 53, 7-chloro-2-(2-cyclopropyl-4-methoxyphenyl)-3-((2,4-dimethylthiazol-5-yl)methyl)-8-hydroxybenzo[4,5]thieno[2,3-d]pyrimidin-4(3H)-one]
100 to 500	COc1ccc(-c2nc3sc4c(O)c(Cl)ccc4c3c(=O)n2CC2=NCCO2)c(C2CC2)c1 [Example 54, 7-chloro-2-(2-cyclopropyl-4-methoxyphenyl)-3-((4,5-dihydrooxazol-2-yl)methyl)-8-hydroxybenzo[4,5]thieno[2,3-d]pyrimidin-4(3H)-one]
< 100	O=c1c2c(nc(-c3ncc(Cl)cc3C3CC3)n1Cc1cc(C(F)(F)F)no1)sc1c(O)c(Cl)ccc12 [Example 103]
< 100	Cn1ccc(Cn2c(-c3cc(F)c(F)cc3C3CC3)nc3sc4c(O)c(Cl)ccc4c3c2=O)cc1=O [Example 167]
< 100	O=c1c2c(nc(-c3ncc(F)cc3C3CC3)n1Cc1cnco1)sc1c(O)c(Cl)ccc12 [Example 89]
500 to 1000	COc1ccc(-c2nc3sc4c(O)c(Cl)ccc4c3c(=O)n2CC(=O)NCCO)c(C2CC2)c1 [Example 51, 2-(7-chloro-2-(2-cyclopropyl-4-methoxyphenyl)-8-hydroxy-4-oxobenzo[4,5]thieno[2,3-d]pyrimidin-3(4H)-yl)-N-(2-hydroxyethyl)acetamide]
< 100	COc1ccc(-c2nc3sc4c(O)c(Cl)ccc4c3c(=O)n2C[C@@H]2CC(=O)N(C)C2)c(C2CC2)c1 [Example 88]
< 100	O=c1c2c(nc(-c3ccc(C(F)(F)F)nc3C3CC3)n1Cc1cnc(C(F)(F)F)nc1)sc1c(O)c(Cl)ccc12 [Example 67, 7-chloro-2-(2-cyclopropyl-6-(trifluoromethyl)pyridin-3-yl)-8-hydroxy-3-((2-(trifluoromethyl)pyrimidin-5-yl)methyl)benzo[4,5]thieno[2,3-d]pyrimidin-4(3H)-one]
1000 to 100000	COc1ccc(-c2nc3sc4c(ccc5oc(=O)[nH]c54)c3c(=O)n2Cc2cnco2)c(C2CC2)c1 [Example 38, 8-(2-cyclopropyl-4-methoxyphenyl)-7-(oxazol-5-ylmethyl)oxazolo[4″,5″:3′,4′]benzo[1′,2′:4,5]thieno[2,3-d]pyrimidine-2,6(1H,7H)-dione]
< 100	COc1ccc(-c2nc3sc4c(O)c(Cl)ccc4c3c(=O)n2Cc2cc(C(F)F)no2)c(C2CC2)c1 [Example 199]
< 100	O=c1c2c(nc(-c3ccc(C(F)F)cc3C3CC3)n1Cc1cnco1)sc1c(O)c(Cl)ccc12 [Example 159]
< 100	CS(=O)(=O)c1ccc(-c2nc3sc4c(O)c(Cl)ccc4c3c(=O)n2Cc2cnco2)c(C2CC2)c1 [Example 80]
< 100	Cc1cc(-c2nc3sc4c(O)c(Cl)ccc4c3c(=O)n2Cc2cnco2)c(C2CC2)s1 [Example 91]
< 100	CS(=O)(=O)c1ccc(-c2nc3sc4c(O)c(Cl)ccc4c3c(=O)n2Cc2cc(C(F)(F)F)no2)c(C2CC2)c1 [Example 81]
< 100	O=c1c2c(nc(-c3ccc(C(F)F)cc3C3CC3)n1Cc1ccc(C(F)(F)F)nc1)sc1c(O)c(Cl)ccc12 [Example 180]
< 100	O=c1c2c(nc(-c3cc(F)c(F)cc3C3CC3)n1Cc1cc(C(F)(F)F)no1)sc1c(O)c(Cl)cc(F)c12 [Example 219, 7-chloro-2-(2-cyclopropyl-4,5-difluorophenyl)-5-fluoro-8-hydroxy-3-((3-(trifluoromethyl)isoxazol-5-yl)methyl)benzo[4,5]thieno[2,3-d]pyrimidin-4(3H)-one]
< 100	N#Cc1ccc(Cn2c(-c3cc(F)c(F)cc3C3CC3)nc3sc4c(O)c(Cl)ccc4c3c2=O)cn1 [Example 172]
< 100	COc1ccc(-c2nc3sc4c(O)c(Cl)ccc4c3c(=O)n2Cc2cnc(C(C)C)s2)c(C2CC2)c1 [Example 196]

IC50 [nM]	Compound
< 100	O=c1c2c(nc(-c3ccccc3C3CC3)n1Cc1cnco1)sc1c(O)c(Cl)ccc12 [Example 87]
100 to 500	COc1cc(C2CC2)c(-c2nc3sc4c(O)c(Cl)ccc4c3c(=O)n2Cc2cnco2)cn1 [Example 203]
100 to 500	COc1cc(-c2nc3sc4c(O)c(Cl)ccc4c3c(=O)n2Cc2cnco2)c(C2CC2)cc1OC [Example 118]
< 100	COc1ccc(-c2nc3sc4c(O)c(Cl)ccc4c3c(=O)n2Cc2cccnc2)c(C2CC2)c1 [Example 152]
< 100	COc1ccc(-c2nc3sc4c(O)c(Cl)ccc4c3c(=O)n2Cc2cncc(C(F)(F)F)c2)c(C2CC2)c1 [Example 154]
1000 to 100000	COc1ccc(-c2nc3sc4c(O)c(C=O)ccc4c3c(=O)n2Cc2cnco2)c(C2CC2)c1 [Example 31, 2-(2-cyclopropyl-4-methoxyphenyl)-8-hydroxy-3-(oxazol-5-ylmethyl)-4-oxo-3,4-dihydrobenzo[4,5]thieno[2,3-d]pyrimidine-7-carbaldehyde]
1000 to 100000	COc1ccc(-c2nc3sc4c(O)c(-c5ccccc5)ccc4c3c(=O)n2Cc2cnco2)c(C2CC2)c1 [Example 35, 2-(2-cyclopropyl-4-methoxyphenyl)-8-hydroxy-3-(oxazol-5-ylmethyl)-7-phenylbenzo[4,5]thieno[2,3-d]pyrimidin-4(3H)-one]
< 100	COc1ccc(-c2nc3sc4c(O)c(Cl)ccc4c3c(=O)n2Cc2cnc(C(F)(F)F)s2)c(C2CC2)c1 [Example 198]
100 to 500	C/C=C/c1cc2cn[nH]c2cc1-c1nc2sc3c(O)c(Cl)ccc3c2c(=O)n1Cc1cnco1 [Example 206]
< 100	O=c1c2c(nc(-c3sc4ccccc4c3C3CC3)n1Cc1cnco1)sc1c(O)c(Cl)ccc12 [Example 158]
< 100	COc1ccc(C2=Nc3sc4c(O)c(Cl)ccc4c3C(=O)C2Cc2ccc(=O)[nH]c2)c(C2CC2)c1 (centres unmarked) [Example 161]
< 100	Cn1cc(Cn2c(-c3ccc(C(F)F)cc3C3CC3)nc3sc4c(O)c(Cl)ccc4c3c2=O)ccc1=O [Example 186]
< 100	COc1ccc(-c2nc3sc4c(O)c(Cl)ccc4c3c(=O)n2Cc2ccc(C(F)(F)F)nc2)c(C2CC2)c1 [Example 153]
< 100	O=c1c2c(nc(-c3ccc4ccccc4c3C3CC3)n1Cc1cnco1)sc1c(O)c(Cl)ccc12 [Example 145]
< 100	COc1ccc(-c2nc3sc4c(O)c(Cl)ccc4c3c(=O)n2Cc2cnc(C(F)F)s2)c(C2CC2)c1 [Example 197]
< 100	O=c1c2c(nc(-c3cc(F)c(F)cc3C3CC3)n1Cc1nnc(C(F)(F)F)s1)sc1c(O)c(Cl)ccc12 [Example 217]
< 100	O=c1c2c(nc(-c3cccc(C(F)(F)F)c3C3CC3)n1Cc1cnco1)sc1c(O)c(Cl)ccc12 [Example 139]
< 100	COc1ccc(-c2nc3sc4c(O)c(Cl)ccc4c3c(=O)n2Cc2ccc(OC)nc2)c(C2CC2)c1 [Example 160]
< 100	COc1ccc(-c2nc3sc4c(O)c(Cl)ccc4c3c(=O)n2Cc2cnc(C)s2)c(C2CC2)c1 [Example 192]
